Assay results published in PubChem BioAssay (NCI).
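How tested: cells in 96-well plates exposed to compound for 48 hours at five concentrations. At the TGI there is no net growth.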

Columns and labels:
Assay in all cases: NCI-60 cell line screen, 48 h
SK-OV-3 ovarian = system: SK-OV-3 ovarian
HT29 colon = system: HT29 colon
NCI-H226 lung = system: NCI-H226 lung
M14 melanoma = system: M14 melanoma
HCT-15 colon = system: HCT-15 colon
K-562 leukemia = system: K-562 leukemia
UO-31 renal = system: UO-31 renal
HOP-62 NSCLC = system: HOP-62 NSCLC
MALME-3M melanoma = system: MALME-3M melanoma
SK-MEL-2 melanoma = system: SK-MEL-2 melanoma
HOP-92 NSCLC = system: HOP-92 NSCLC
HL-60(TB) leukemia = system: HL-60(TB) leukemia

| Structure (SMILES) | TGI (SK-OV-3 ovarian) | TGI (HT29 colon) | TGI (NCI-H226 lung) | TGI (M14 melanoma) | TGI (HCT-15 colon) | TGI (K-562 leukemia) | TGI (UO-31 renal) | TGI (HOP-62 NSCLC) | TGI (MALME-3M melanoma) | TGI (SK-MEL-2 melanoma) | TGI (HOP-92 NSCLC) | TGI (HL-60(TB) leukemia) |
| --- | --- | --- | --- | --- | --- | --- | --- | --- | --- | --- | --- | --- |
| CCOC(=O)C12CCC(=O)N1N(C)c1ncccc1N2 (stereo unspecified) | > 100 µM | > 100 µM | > 100 µM | > 100 µM | > 100 µM | > 100 µM | > 100 µM | > 100 µM | – | – | – | – |
| COC1OC2COC1(OCc1ccccc1)C1OC(C)(C)OC21 (stereo unspecified) | > 100 µM | > 100 µM | > 100 µM | > 100 µM | > 100 µM | > 100 µM | > 100 µM | > 100 µM | > 100 µM | > 100 µM | – | – |
| C=C1C(C(=O)OC)[C@H]1C(=O)OC (stereo partly specified) | > 100 µM | > 100 µM | > 100 µM | > 100 µM | > 100 µM | – | > 100 µM | > 100 µM | – | > 100 µM | > 100 µM | > 100 µM |
| Cc1ccc2c(c1)nc1n2C(c2c(F)cccc2F)SC1 (stereo unspecified) | > 100 µM | > 100 µM | > 100 µM | > 100 µM | 82.4 µM | > 100 µM | > 100 µM | > 100 µM | 93.3 µM | 48.2 µM | – | – |
| O=S(=O)(O)c1ccc(N=Nc2ccccc2)cc1 | > 100 µM | > 100 µM | > 100 µM | > 100 µM | > 100 µM | > 100 µM | > 100 µM | > 100 µM | – | > 100 µM | > 100 µM | > 100 µM |
| CC1C(C)(C)C23CC12C1(OCCO1)C3Br (stereo unspecified) | > 100 µM | > 100 µM | > 100 µM | > 100 µM | > 100 µM | > 100 µM | > 100 µM | > 100 µM | > 100 µM | – | – | > 100 µM |
| O=c1onc2n1-c1ccc(Cl)cc1C(=S)N1CSCC21 (stereo unspecified) | 49.4 µM | 53.1 µM | 83.1 µM | 28.8 µM | 95.3 µM | > 100 µM | > 100 µM | > 100 µM | > 100 µM | 69.6 µM | – | – |
| O=C1c2ccccc2N(O)C1(c1ccccc1)C1CCCC=C1N1CCOCC1 (stereo unspecified) | > 100 µM | > 100 µM | > 100 µM | > 100 µM | > 100 µM | > 100 µM | > 100 µM | > 100 µM | – | – | – | > 100 µM |
| COC(=O)C1CCC(=O)N1C(c1ccc(OC)cc1)c1cc(OC)c(OC)c(OC)c1 (stereo unspecified) | > 100 µM | – | 2.11 µM | 21.6 µM | > 100 µM | > 75.8 µM | > 100 µM | > 100 µM | – | > 100 µM | > 100 µM | – |
| CN1CCC2(CC1)SSC1(CCN(C)CC1)S2 | > 100 µM | > 100 µM | – | > 100 µM | > 100 µM | > 100 µM | > 100 µM | > 100 µM | – | > 100 µM | > 100 µM | > 100 µM |
| CCOC(=O)CNC(=O)C(CCC(=O)N(C)O)NC(=O)CCC(N)C(=O)O (stereo unspecified) | > 100 µM | > 100 µM | > 100 µM | > 100 µM | > 100 µM | > 100 µM | > 100 µM | > 100 µM | – | > 100 µM | > 100 µM | > 100 µM |
| Cc1cc(N(CCC#N)CCC#N)ccc1/C(N=Nc1ccc([N+](=O)[O-])cc1)=N\NC(=O)c1cc(Cl)ccc1O | > 100 µM | > 100 µM | 93 µM | > 100 µM | > 100 µM | > 100 µM | 56.8 µM | > 100 µM | > 100 µM | > 100 µM | – | – |
| Cc1nc(OCc2ccccc2)c2ncn(CCO)c2n1 | > 100 µM | > 100 µM | > 100 µM | > 100 µM | – | – | > 100 µM | – | – | > 100 µM | > 100 µM | > 100 µM |
| COc1ccc(C2SCC(=O)N2c2ccc(-n3c(-c4ccccc4)nc4ccccc4c3=O)cc2)cc1 (stereo unspecified) | > 100 µM | > 100 µM | > 100 µM | > 100 µM | > 100 µM | > 100 µM | > 100 µM | > 100 µM | – | > 100 µM | > 100 µM | > 100 µM |
| Cc1cn(C2CC(n3cc(Cn4ccc(=O)[nH]c4=O)nn3)C(CO)O2)c(=O)[nH]c1=O (stereo unspecified) | > 100 µM | – | > 100 µM | > 100 µM | > 100 µM | – | > 100 µM | > 100 µM | – | > 100 µM | > 100 µM | > 100 µM |
| Fc1cc(C2=Nn3c(COc4ccccc4Cl)nnc3S/C2=C\c2ccc(Cl)cc2)c(Cl)cc1Cl | > 100 µM | > 100 µM | > 100 µM | 17 µM | 20.7 µM | > 100 µM | 93.8 µM | > 100 µM | – | 32.3 µM | 20.2 µM | 68.4 µM |
| COc1ccc(C(=O)/C=C/c2ccc(OCCCCCCCCCCOc3ccc(/C=C/C(=O)c4ccc(OC)cc4)cc3)cc2)cc1 | > 100 µM | > 100 µM | > 100 µM | > 100 µM | > 100 µM | > 100 µM | > 100 µM | > 100 µM | – | > 100 µM | – | > 100 µM |
| O=[N+]([O-])c1ccc(-c2csc(N=Nc3c(O)[nH]c4ccccc34)n2)cc1 | > 100 µM | 76.6 µM | > 100 µM | 36.4 µM | 30.1 µM | – | 39.2 µM | > 100 µM | – | 84.2 µM | 74.5 µM | – |
